Measurements published in patent publication US10583096B2, “Use of cannabinoids in the treatment of epilepsy” (GW Research Limited, priority 2016, dated 2020).

Key:
[1] = system: mice; conditions: after administration of pro-convulsant drugs or an electric current; cited from earlier work
[2] = system: Dravet syndrome; conditions: treatment of Dravet syndrome, announced March 2016; cited from earlier work
[3] = system: institutionalized adult patients; conditions: 200 mg/day of pure CBD, twelve institutionalized adult patients, open label; cited from earlier work
[4] = system: adult patients with secondary generalized epilepsy; conditions: of eight adult patients with secondary generalized epilepsy; cited from earlier work
[5] = system: multiple species and models; conditions: previous studies in animals; cited from earlier work
[6] = system: adult patients; conditions: 200 mg/day of pure CBD, four adult patients; cited from earlier work
[7] = system: subjects with SWS brain involvement and refractory epilepsy; experiment: Expanded access compassionate use program of CBD in Sturge Weber syndrome: seizure frequency and quality of life; type: in vivo, human; conditions: for Week 14 (number of seizures): CBD target dose 15-25 mg/kg/day; for Decrease in seizure frequency (%): week 14 versus baseline
Protocol: “Percentage decrease in seizure frequency” is defined as the number of seizures at week 14 minus the number of seizures at baseline divided by the number of seizures at baseline multiplied by 100.
Four subjects with SWS brain involvement and refractory epilepsy were enrolled in an expanded access compassionate use program for CBD. These subjects were treated with a highly purified extract of cannabidiol (CBD) obtained from a cannabis plant. Frequency of seizures was recorded at each visit, as were reported quality of life changes, including mood, behaviour, and cognitive function.
Data were compared in the 56-day pre-treatment period, the 56-day period after starting maintenance dose (Week 14), and at most recent visit.
The participants in the study were taking at the time of entry into the study between one and four concomitant AEDs.
Patient 1 was taking leviteracetam alone. Patient 2 was taking leviteracetam, valproate, felbamate and clobazam. Patient 3 was taking valproate and topiramate. Patient 4 was taking oxycarbamazepine and lacosamide.
CBD was administered at a target dose of 15-25 mg/kg/day.
All patients entered a baseline period of 14 weeks when parents/caregivers kept prospective seizure diaries, noting all countable seizure types.
Laboratory testing for hematologic, liver, kidney function and concomitant AED levels was performed at baseline, and after every 4 weeks of CBD therapy.

[8] = in vivo; cited from earlier work

For `C=C(C)[C@@H]1CCC(C)=C[C@H]1c1c(O)cc(CCCCC)cc1O` [CBD, Cannabidiol], the prevention of seizures [1] is given as “able to prevent seizures”, the “outcome of the Phase 3 study” value [2] is given as “positive results” and the control of seizures [3] is given as “ineffective”. The “number of patients with a marked reduction of seizures” value [4] was 4, the anticonvulsant efficacy [5] was “anticonvulsant efficacy in multiple species and models” and the “patients who became seizure free” value [6] was “two of the four patients”. The “seizure frequency in the remainder of the patients” value [6] was “unchanged”, the “Week 14 (number of seizures)” value ([7]; Patient 1, concomitant leviteracetam alone, baseline 67 seizures) was 60 number of seizures and the “Decrease in seizure frequency (%)” value ([7]; Patient 1, concomitant leviteracetam alone) was 10%. For the same compound, the “Week 14 (number of seizures)” value ([7]; Patient 2, concomitant leviteracetam, valproate, felbamate and clobazam, baseline 6 seizures) was 1 number of seizures, the “Decrease in seizure frequency (%)” value ([7]; Patient 2, concomitant leviteracetam, valproate, felbamate and clobazam) was 83% and the “Week 14 (number of seizures)” value ([7]; Patient 3, concomitant valproate and topiramate, baseline 10 seizures) was 1 number of seizures. The “Decrease in seizure frequency (%)” value ([7]; Patient 3, concomitant valproate and topiramate) was 90%, the “Week 14 (number of seizures)” value ([7]; Patient 4, concomitant oxycarbamazepine and lacosamide, baseline 6 seizures) was 4 number of seizures and the “Decrease in seizure frequency (%)” value ([7]; Patient 4, concomitant oxycarbamazepine and lacosamide) was 33%. For the same compound, the “effectiveness in the treatment of SWS” value ([7]; conclusion from the four patients) was “effective”, the “reported quality of life” value ([7]; patient 1) was “remained unchanged” and the “reported quality of life” value ([7]; three of the four patients (patients 2, 3 and 4)) was “improved quality of life”. For the same compound, the cognitive function ([7]; three subjects (patients 2, 3 and 4)) was “improvements in cognitive function”, the “share of patients who benefited from a reduction in the number of seizures” value ([7]; treatment-resistant SWS patients, four subjects) was “three quarters” and the mood and behaviour ([7]; two subjects (patient 2 and 3)) was “improvements in mood and behaviour”.
For `CCCCCc1cc(O)c2c(c1)OC(C)(C)[C@@H]1CCC(C)=C[C@@H]21` [THC, Tetrahydrocannabinol], the effect on convulsions [8] is listed as “pro-convulsant”.
